Consider 50 compounds from ChEMBL document CHEMBL5244202, “Structural evolution of toll-like receptor 7/8 agonists from imidazoquinolines to imidazoles” (RSC Med Chem, 2021).

One assay addresses T1, Toll-like receptor 7 (Homo sapiens, UniProt Q9NYK1).
T1 sequence (Q9NYK1 whole entry): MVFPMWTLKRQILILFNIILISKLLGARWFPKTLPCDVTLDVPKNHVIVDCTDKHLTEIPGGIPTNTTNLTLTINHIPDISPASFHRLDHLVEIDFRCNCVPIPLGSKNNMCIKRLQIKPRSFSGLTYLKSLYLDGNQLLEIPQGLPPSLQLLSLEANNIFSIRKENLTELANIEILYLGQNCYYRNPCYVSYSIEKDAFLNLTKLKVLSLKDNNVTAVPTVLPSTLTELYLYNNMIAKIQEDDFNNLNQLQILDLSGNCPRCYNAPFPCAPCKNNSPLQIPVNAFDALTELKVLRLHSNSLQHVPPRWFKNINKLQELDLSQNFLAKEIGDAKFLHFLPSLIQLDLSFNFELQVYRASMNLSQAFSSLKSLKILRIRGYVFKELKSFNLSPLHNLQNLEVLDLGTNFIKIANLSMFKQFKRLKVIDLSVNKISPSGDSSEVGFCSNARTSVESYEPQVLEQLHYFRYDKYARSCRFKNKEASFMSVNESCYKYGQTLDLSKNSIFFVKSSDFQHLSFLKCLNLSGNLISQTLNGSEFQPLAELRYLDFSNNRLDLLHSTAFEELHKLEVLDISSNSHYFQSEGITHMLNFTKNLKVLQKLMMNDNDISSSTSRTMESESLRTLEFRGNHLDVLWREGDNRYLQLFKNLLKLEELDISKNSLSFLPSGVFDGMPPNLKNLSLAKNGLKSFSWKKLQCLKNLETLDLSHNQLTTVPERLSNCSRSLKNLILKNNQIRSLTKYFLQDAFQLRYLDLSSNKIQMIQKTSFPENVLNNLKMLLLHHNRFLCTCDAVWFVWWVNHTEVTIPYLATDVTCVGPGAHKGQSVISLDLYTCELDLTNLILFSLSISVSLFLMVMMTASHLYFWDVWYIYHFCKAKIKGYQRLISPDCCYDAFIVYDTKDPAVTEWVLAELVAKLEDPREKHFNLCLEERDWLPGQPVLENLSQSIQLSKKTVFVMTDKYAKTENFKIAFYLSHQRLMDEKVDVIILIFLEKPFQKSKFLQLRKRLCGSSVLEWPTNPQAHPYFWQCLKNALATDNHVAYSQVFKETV
The assay is described as follows: Agonist activity at recombinant human TLR7 transfected in HEK293 cells assessed as induction of SEAP production incubated overnight by SEAP reporter gene based assay. The class given is cell-based. A general note: A reporter such as luciferase makes a cellular process visible.
For `CCC[C@@H](CO)Nc1nc(N)nc(C)c1Cc1ccc(CNC2CNC2)cc1OC`, the EC50 – broadly, the concentration needed to bring the measured effect to its halfway point – was 380 nM.

In the case of `CCC[C@@H](CCO)Nc1nc(N)nc(C)c1Cc1ccc(CN2CCN(C)CC2)cc1OC`, the EC50 was under 1.95 nM.

In the case of `CCC[C@@H](CO)Nc1nc(N)nc(C)c1Cc1ccc(CNCCO)cc1OC`, the EC50 was 95.5 nM.

For the compound `CCC[C@@H](CCO)Nc1nc(N)nc(C)c1Cc1ccc(CN2CCCC2)cc1OC`, the EC50 was under 1.95 nM.

As to `CCC[C@@H](CCO)Nc1nc(N)nc(C)c1Cc1ccc(CN(C)CCOC)cc1OC`, the half-maximal effective concentration (EC50) is under 1.95 nM.

On to `CCC[C@@H](CCO)Nc1nc(N)nc(C)c1Cc1ccc(CN2CCNCC2)cc1OC`, for which the EC50 was 5.89 nM.

Turning to `CCC[C@@H](CO)Nc1nc(N)nc(C)c1Cc1ccc(CN(C)C)cc1OC`, the EC50 was 2.29 nM.

In the case of `CCC[C@@H](CCO)Nc1nc(N)nc(C)c1Cc1ccc(Cn2ccnc2)cc1OC`, the EC50 is 2.75 nM.

In a further assay the target is T1, Toll-like receptor 7. The assay is described as follows: Agonist activity at human TLR7 by reporter cell based assay.
Compound `CCCC[C@@H](CCO)Nc1nc(N)nc(C)c1Cc1ccc(CC(=O)OCCC2CCN(C)CC2)cc1F` showed an EC50 of 31.6 nM.

Turning to `CCCCc1nc2c(N)nc3ccccc3c2n1CCCN(Cc1cccc(C(=O)OC)c1)C(=O)CN1C[C@@H](C)O[C@@H](C)C1`, a half-maximal response (EC50) required 1000 nM.

Take `CCCC[C@@H](CCO)Nc1nc(N)nc(C)c1Cc1ccc(CC(=O)OCCCCN2CCN(C)CC2)cc1F`: the midpoint of the response, the EC50, lay at 25.1 nM.

The compound `CCCCc1nc2c(N)nc3ccccc3c2n1CCCN(Cc1cccc(C(=O)OC)c1)C(=O)CN(C)C1CCOCC1` had an EC50 of 126 nM.

The compound `CCCCc1nc2c(N)nc3ccccc3c2n1CCCN(Cc1cccc(C(=O)OC)c1)C(=O)CN1CCCN(S(C)(=O)=O)CC1` showed an EC50 of 631 nM.

`CCCCc1nc2c(N)nc3ccccc3c2n1CCCN(Cc1cccc(C(=O)OC)c1)C(=O)CN1CCCN(C)CC1` had an EC50 of 251 nM.

Consider `CCCCc1nc2c(N)nc3ccccc3c2n1CCCN(Cc1cccc(C(=O)OC)c1)C(=O)CN1CCCCCC1`, for which the concentration giving a half-maximal response (EC50) is 79.4 nM.

The compound `CCCCc1nc2c(N)nc3ccccc3c2n1CCCN(Cc1cccc(C(=O)OC)c1)C(=O)CN1CCC(C(=O)N(C)C)CC1` showed an EC50 of 631 nM.

Turning to `CCCCc1nc2c(N)nc3ccccc3c2n1CCCN(Cc1cccc(C(=O)OC)c1)C(=O)CN(C)C`, the EC50 was 39.8 nM.

Take `CCCCc1nc2c(N)nc3ccccc3c2n1CCCN(Cc1cccc(C(=O)OC)c1)C(=O)CN1CCC1`: it took 251 nM to reach a half-maximal effect (EC50).

`CCCCc1nc2c(N)nc3ccccc3c2n1CCCN(Cc1cccc(C(=O)OC)c1)C(=O)CN1CC[C@@H](O)C1` had an EC50 of 398 nM.

`CCCCc1nc2c(N)nc3ccccc3c2n1CCCN(CCCN(C)C)Cc1cccc(C(=O)OC)c1`: the EC50 was 251 nM.

`CCCCCNc1nc(N)nc(C)c1CCCN(Cc1ccc(CC(=O)OC)cc1)C(=O)CN1CCCCC1` showed an EC50 of 631 nM.

`CCCCc1nc2c(N)nc3ccccc3c2n1CCCN(Cc1cccc(C(=O)OC)c1)C(=O)CN1CCN(C)CC1` gave an EC50 of 79.4 nM.

`CCCCc1nc2c(N)nc3ccccc3c2n1CCCN(Cc1cccc(C(=O)OC)c1)C(=O)CN1CCN(S(C)(=O)=O)CC1` showed an EC50 of 794 nM.

Consider `CCCCCNc1nc(N)nc(C)c1CCCN(Cc1ccc(CC(=O)OC)cc1)C(=O)CC1CCN(C)CC1`, for which it took 794 nM to reach a half-maximal effect (EC50).

For `CCCCc1nc2c(N)nc3ccccc3c2n1CCCN(Cc1cccc(C(=O)OC)c1)C1CCN(C)CC1`, the EC50 is 316 nM.

As to `CCCCc1nc2c(N)nc3ccccc3c2n1CCCN(Cc1cccc(C(=O)OC)c1)C(=O)CN1CCC(O)C1` (stereo not given), the midpoint of the response, the EC50, lay at 398 nM.

Take `CCCCc1nc2c(N)nc3ccccc3c2n1CCCN(Cc1cccc(C(=O)OC)c1)C(=O)CN1CCC(O)CC1`: a half-maximal response (EC50) required 501 nM.

Turning to `CCCCc1nc2c(N)nc3ccccc3c2n1CCCN(CCCN1CCN(C)CC1)Cc1cccc(C(=O)OC)c1`, it took 251 nM to reach a half-maximal effect (EC50).

In the case of `CCCCc1nc2c(N)nc3ccccc3c2n1CCCN(CCCN(C)CC)Cc1cccc(C(=O)OC)c1`, the EC50 was 158 nM.

As for `CCCCCNc1nc(N)nc(C)c1Cc1cccc(CC(=O)OCCCCN(C)C)c1`, the EC50 was 31.6 nM.

The compound `CCCCc1nc2c(N)nc3ccccc3c2n1CCCN(Cc1cccc(C(=O)OC)c1)C(=O)CN(C)CCCC` showed a half-maximal effective concentration (EC50) of 126 nM.

With `CCCC[C@@H](CCO)Nc1nc(N)nc(C)c1Cc1ccc(CC(=O)OCCCCN(C)C)cc1`, the midpoint of the response, the EC50, lay at 25.1 nM.

For `CCCC[C@@H](CO)Nc1nc(N)nc(C)c1Cc1ccc(CC(=O)OCCCCN(C)C)cc1`, the response was half-maximal at 1260 nM (EC50).

Compound `CCCCc1nc2c(N)nc3ccccc3c2n1CCCN(Cc1cccc(C(=O)OC)c1)C(=O)CN1CCCN(C(=O)NCC)CC1` showed an EC50 of 1260 nM.

Turning to `CCCC[C@@H](CCO)Nc1nc(N)nc(C)c1Cc1ccc(CC(=O)OCC2CCN(C)CC2)cc1F`, the EC50 was 39.8 nM.

On to `COCCc1nc2c(N)nc3ccccc3c2n1CCCN(Cc1ccc(CC(=O)OC)cc1)C(=O)CCN(C)C`, for which the response was half-maximal at 158 nM (EC50).

Consider `CCCCc1nc2c(N)nc3ccccc3c2n1CCCN(Cc1cccc(C(=O)OC)c1)C(=O)CN1CC(O)C1`, for which the EC50 is 1580 nM.

`CCCCc1nc2c(N)nc3ccccc3c2n1CCCN(Cc1cccc(C(=O)OC)c1)C(=O)CN1CCCCC1` gave a 50% effective concentration (EC50) of 79.4 nM.

For `CCCCCNc1nc(N)nc(C)c1CCCN(Cc1cccc(CC(=O)OC)c1)C(=O)CN1CCC[C@@H]1C(=O)OC`, the midpoint of the response, the EC50, lay at 631 nM.

On to `CCCCc1nc2c(N)nc3ccccc3c2n1CCCN(Cc1cccc(C(=O)OC)c1)C(=O)CN1CCCOCC1`, for which a half-maximal effect (EC50) was put at 398 nM.

Compound `CCCCc1nc2c(N)nc3ccccc3c2n1CCCN(Cc1cccc(C(=O)OC)c1)C(=O)CN1CCCN(C(C)=O)CC1` gave a concentration for a half-maximal effect (EC50) of 501 nM.

Take `CCCCc1nc2c(N)nc3ccccc3c2n1CCCN(Cc1cccc(C(=O)OC)c1)C(=O)CN1CCC(OC)CC1`: the response was half-maximal at 200 nM (EC50).

With `CCCCc1nc2c(N)nc3ccccc3c2n1CCCN(Cc1cccc(C(=O)OC)c1)C(=O)CN(CCC)CCC`, the EC50 was 79.4 nM.

`CCCCc1nc2c(N)nc3ccccc3c2n1CCCN(Cc1cccc(C(=O)OC)c1)C(=O)CN(CCO)CCO` had a concentration for a half-maximal effect (EC50) of 1580 nM.

In turn, `CCCCc1nc2c(N)nc3ccccc3c2n1CCCN(Cc1cccc(C(=O)OC)c1)C(=O)CN1CCCC1` showed an EC50 of 63.1 nM.

The compound `CCCCc1nc2c(N)nc3ccccc3c2n1CCCN(Cc1cccc(C(=O)OC)c1)C(=O)CN1CCN(CCO)CC1` gave an EC50 of 501 nM.

In turn, `CCCCc1nc2c(N)nc3ccccc3c2n1CCCN(Cc1cccc(C(=O)OC)c1)C(=O)CN(C)CCOC` showed an EC50 of 158 nM.

As to `CCCCc1nc2c(N)nc3ccccc3c2n1CCCN(Cc1cccc(C(=O)OC)c1)C(=O)CN1CCN(C(C)=O)CC1`, the EC50 was 1260 nM.

Regarding `CCCC[C@@H](CCO)Nc1nc(N)nc(C)c1Cc1ccc(CC(=O)OCCCCN(C)C)cc1F`, the EC50 is 200 nM.

Compound `CCCCc1nc2c(N)nc3ccccc3c2n1CCCN(CCCN1CCOCC1)Cc1cccc(C(=O)OC)c1` gave an EC50 of 251 nM.
